Where two headings read alike, the source gives them in different places.
Columns and labels:
[1] = test system: Amaranthus rudis (AMATA), tall water hemp; test: Postemergence herbicide evaluation, growth of Amaranthus rudis (AMATA); assay type: in vivo; settings: Amaranthus tuberculatus, post-emergence, percent reduction in plant size vs untreated control, read-out: Ave. AMATA; for pest or weed control at 280 g/ha: 280 g ae/ha; for pest or weed control at 560 g/ha: 560 g ae/ha
[2] = test system: Ambrosia artemisiifolia (AMBEL), common ragweed; test: Postemergence herbicide evaluation, growth of Ambrosia artemisiifolia (AMBEL); assay type: in vivo; settings: Ambrosia artemisiifolia, post-emergence, percent reduction in plant size vs untreated control, read-out: AVE. AMBEL; for pest or weed control at 280 g/ha: 280 g ae/ha; for pest or weed control at 560 g/ha: 560 g ae/ha
[3] = test system: Abutilon theophrasti (ABUTH), velvetleaf; test: Postemergence herbicide evaluation, growth of Abutilon theophrasti (ABUTH); assay type: in vivo; settings: Abutilon theophrasti, post-emergence, percent reduction in plant size vs untreated control, read-out: AVE. ABUTH; for pest or weed control at 280 g/ha: 280 g ae/ha; for pest or weed control at 560 g/ha: 560 g ae/ha
[4] = test system: Chenopodium album (CHEAL), common lambsquarters; test: Postemergence herbicide evaluation, growth of Chenopodium album (CHEAL); assay type: in vivo; settings: Chenopodium album, post-emergence, percent reduction in plant size vs untreated control, read-out: Ave. CHEAL; for pest or weed control at 280 g/ha: 280 g ae/ha; for pest or weed control at 560 g/ha: 560 g ae/ha
[5] = test system: glyphosate resistant Conyza canadensis (L.) (ERICA), horseweed; test: Postemergence herbicide evaluation, growth of Conyza canadensis (ERICA); assay type: in vivo; settings: Erigeron canadensis, post-emergence, percent reduction in plant size vs untreated control, read-out: Ave. ERICA; for pest or weed control at 280 g/ha: 280 g ae/ha; for pest or weed control at 560 g/ha: 560 g ae/ha
[6] = Volatility of compounds measured by thermogravimetric analysis (TGA); assay type: physicochemical
[7] = test system: weeds ABUTH, AMATA, AMBEL, CHEAL, ERICA; test: Postemergence herbicide evaluation, overall average % weed control across ABUTH, AMATA, AMBEL, CHEAL and ERICA; assay type: in vivo; settings: post-emergence, average over five weeds, read-out: Overall Ave % Weed Control; for pest or weed control at 280 g/ha: 280 g ae/ha; for pest or weed control at 560 g/ha: 560 g ae/ha

SMILES | pest or weed control at 280 g/ha ([1]; 168 h, 7 DAA) [%] | pest or weed control at 560 g/ha ([1]; 168 h, 7 DAA) [%] | pest or weed control at 560 g/ha ([1]; 336 h, 14 DAA) [%] | pest or weed control at 560 g/ha ([1]; 504 h, 21 DAA) [%] | pest or weed control at 560 g/ha ([2]; 168 h, 7 DAA) [%] | pest or weed control at 560 g/ha ([2]; 336 h, 14 DAA) [%] | pest or weed control at 560 g/ha ([2]; 504 h, 21 DAA) [%] | pest or weed control at 560 g/ha ([3]; 168 h, 7 DAA) [%] | pest or weed control at 560 g/ha ([3]; 336 h, 14 DAA) [%] | pest or weed control at 560 g/ha ([3]; 504 h, 21 DAA) [%] | pest or weed control at 560 g/ha ([4]; 168 h, 7 DAA) [%] | pest or weed control at 560 g/ha ([4]; 336 h, 14 DAA) [%] | pest or weed control at 560 g/ha ([4]; 504 h, 21 DAA) [%] | pest or weed control at 560 g/ha ([5]; 168 h, 7 DAA) [%] | pest or weed control at 560 g/ha ([5]; 336 h, 14 DAA) [%] | pest or weed control at 560 g/ha ([5]; 504 h, 21 DAA) [%] | TGA Data (rate of weight loss, volatility) [6] [µg/min] | pest or weed control at 560 g/ha ([7]; 168 h, 7 DAA) [%] | pest or weed control at 560 g/ha ([7]; 336 h, 14 DAA) [%] | pest or weed control at 560 g/ha ([7]; 504 h, 21 DAA) [%] | other results
O=C(COc1ccc(Cl)cc1Cl)NOCc1ccc(Cl)cc1 [Compound D16] | 75 | 75 | 92.5 | 92.5 | 72.5 | 87.5 | 100 | 27.5 | 37.5 | 45 | 82.5 | 92.5 | 100 | 80 | 97.5 | 99 | 0.03658 | 67.5 | 81.5 | 87.3 | pest or weed control at 280 g/ha ([1]; 336 h, 14 DAA): 92.5%; pest or weed control at 280 g/ha ([1]; 504 h, 21 DAA): 85%; pest or weed control at 280 g/ha ([2]; 168 h, 7 DAA): 77.5%; pest or weed control at 280 g/ha ([2]; 336 h, 14 DAA): 75%; pest or weed control at 280 g/ha ([2]; 504 h, 21 DAA): 100%; pest or weed control at 280 g/ha ([3]; 168 h, 7 DAA): 65%; pest or weed control at 280 g/ha ([3]; 336 h, 14 DAA): 72.5%; pest or weed control at 280 g/ha ([3]; 504 h, 21 DAA): 80%; pest or weed control at 280 g/ha ([4]; 168 h, 7 DAA): 80%; pest or weed control at 280 g/ha ([4]; 336 h, 14 DAA): 94%; pest or weed control at 280 g/ha ([4]; 504 h, 21 DAA): 97.5%; pest or weed control at 280 g/ha ([5]; 168 h, 7 DAA): 72.5%; pest or weed control at 280 g/ha ([5]; 336 h, 14 DAA): 92.5%; pest or weed control at 280 g/ha ([5]; 504 h, 21 DAA): 100%; pest or weed control at 280 g/ha ([7]; 168 h, 7 DAA): 74%; pest or weed control at 280 g/ha ([7]; 336 h, 14 DAA): 85.3%; pest or weed control at 280 g/ha ([7]; 504 h, 21 DAA): 92.5%
O=C(COc1ccc(Cl)cc1Cl)NOCc1c(F)cccc1Cl [Compound D17] |  | 86.5 | 96 | 92.5 | 77.5 | 92.5 | 100 | 47.5 | 62.5 | 80 | 77.5 | 98 | 100 | 80 | 100 | 100 | 0.0287 | 73.8 | 89.8 | 94.5 | 
O=C(COc1ccc(Cl)cc1Cl)NOCCc1ccccc1 [Compound D18] | 72.5 | 96 | 96 | 95 | 91 | 95 | 100 | 72.5 | 96.5 | 99.5 | 75 | 92.5 | 100 | 85 | 98 | 98 | 0.1777 | 83.9 | 95.6 | 98.5 | pest or weed control at 280 g/ha ([1]; 336 h, 14 DAA): 87.5%; pest or weed control at 280 g/ha ([1]; 504 h, 21 DAA): 75%; pest or weed control at 280 g/ha ([2]; 168 h, 7 DAA): 75%; pest or weed control at 280 g/ha ([2]; 336 h, 14 DAA): 80%; pest or weed control at 280 g/ha ([2]; 504 h, 21 DAA): 100%; pest or weed control at 280 g/ha ([3]; 168 h, 7 DAA): 67.5%; pest or weed control at 280 g/ha ([3]; 336 h, 14 DAA): 85%; pest or weed control at 280 g/ha ([3]; 504 h, 21 DAA): 100%; pest or weed control at 280 g/ha ([4]; 168 h, 7 DAA): 75%; pest or weed control at 280 g/ha ([4]; 336 h, 14 DAA): 97.5%; pest or weed control at 280 g/ha ([4]; 504 h, 21 DAA): 92.5%; pest or weed control at 280 g/ha ([5]; 168 h, 7 DAA): 85%; pest or weed control at 280 g/ha ([5]; 336 h, 14 DAA): 99%; pest or weed control at 280 g/ha ([5]; 504 h, 21 DAA): 100%; pest or weed control at 280 g/ha ([7]; 168 h, 7 DAA): 75%; pest or weed control at 280 g/ha ([7]; 336 h, 14 DAA): 89.8%; pest or weed control at 280 g/ha ([7]; 504 h, 21 DAA): 93.5%
CONC(=O)COc1ccc(Cl)cc1Cl [Compound D19] | 77.5 | 90 | 93.5 | 75 | 93.5 | 85 | 100 | 87.5 | 98 | 100 | 85 | 95 | 98 | 80 | 100 | 99.5 | 0.61 | 87.2 | 94.3 | 94.5 | pest or weed control at 280 g/ha ([1]; 336 h, 14 DAA): 90%; pest or weed control at 280 g/ha ([1]; 504 h, 21 DAA): 72.5%; pest or weed control at 280 g/ha ([2]; 168 h, 7 DAA): 82.5%; pest or weed control at 280 g/ha ([2]; 336 h, 14 DAA): 82.5%; pest or weed control at 280 g/ha ([2]; 504 h, 21 DAA): 100%; pest or weed control at 280 g/ha ([3]; 168 h, 7 DAA): 75%; pest or weed control at 280 g/ha ([3]; 336 h, 14 DAA): 89%; pest or weed control at 280 g/ha ([3]; 504 h, 21 DAA): 98.5%; pest or weed control at 280 g/ha ([4]; 168 h, 7 DAA): 77.5%; pest or weed control at 280 g/ha ([4]; 336 h, 14 DAA): 94%; pest or weed control at 280 g/ha ([4]; 504 h, 21 DAA): 96.5%; pest or weed control at 280 g/ha ([5]; 168 h, 7 DAA): 82.5%; pest or weed control at 280 g/ha ([5]; 336 h, 14 DAA): 98%; pest or weed control at 280 g/ha ([5]; 504 h, 21 DAA): 98.5%; pest or weed control at 280 g/ha ([7]; 168 h, 7 DAA): 79%; pest or weed control at 280 g/ha ([7]; 336 h, 14 DAA): 90.7%; pest or weed control at 280 g/ha ([7]; 504 h, 21 DAA): 93.2%

Source: US20260042731A1, “(2,4-DICHLOROPHENOXY)ACETIC ACID ANALOGS” (CORTEVA AGRISCIENCE LLC, priority 2022, published 2026)
